# Data taken from patent US7129250B2, “Neuroprotective and anti-proliferative compounds” (Aegera Therapeutics Inc., priority 2000, dated 2006).
# Values joined by “and” are separate entries in the source; they are usually repeats but may differ in a detail not shown here. Equal entries are not always repeated.
# Legend:
# CGNs [1] = assay: Cisplatin Killing of CGNs; format: cell-based, CD1 mice
# Method: Cisplatin has been used extensively in the treatment of various cancers. One dosblimiting side effect of this chemotherapeutic agent is related to hearing loss as a result of its toxicity to auditory neurons and loss of feeling in the extremities. Cisplatin induces apoptosis to both cultured CGN and cortical neurons.
# CGNs were harvested from day 8/9 post-natal CD1 mice, plated on Poly-D-Lycine coated plates and incubated for 6 days at 37° C. under 5% CO2. The cells were treated with media containing drug and cisplatin […].
# SCG neurons = assay: NGF Withdrawal Killing of SCG Neurons; format: cell-based, Sprague-Dawley rats; conditions: Rattus norvegicus, Neuron, assayed 48 hours after drug
# Description: Cultured Superiour Cervical Ganglion (SCG) neurons of the PNS which have been sustained in media containing Neuron Growth Factor (NGF) undergo apoptotic cell death upon removal of the NGF from the cellular medium. Loss of neuronal trofin support has been implicated in various neurodegenerative disease states in the PNS, such as diabetic neuropathy and neuropahies related to chemotherapeutic and anti-HIV drug treatment.
# SCG neurons were harvested from day 1 post natal Sprague-Dawley rats, plated on collagen coated plates and incubated for 5 days in the presence of 50 ng/mL NGF at 37° C. under 5% CO2. The cells were washed with NGF free media, 4 times at 1 hour intervals, at which time drug was added.
# SHSY-5Y cells = assay: Etoposide Killing of SHSY-5Y; format: cell-based; conditions: etoposide 32 uM
# Method: SHSY-5Y cells were grown in growth media. Cells are placed at 50,000 cells per 96 well. Four days latter the cells were treated with drug for 48 hours prior to etoposide (32 uM) treatment. On day 6 media was changed to that containing etoposide and drug for 4 hours, at which point the media was changed to media containing drug only. Cells are allowed to survive overnight and then assessed for viability with metabolic activity measured (WST-1-Beohringer Mannheime), as shown in TABLE 13.
# CGNs [2] = assay: β-Amyloid Aggregation Assay in CGNs; format: cell-based; conditions: Mus musculus, 120 h; Aβ 25 μM; assayed 5 days after Aβ addition
# Description: Various mechanisms have been put forward in order to account for the neurotoxicity related to extracellular Aβ fibril formation. […] Regardless of the mode of action, extracellular Aβ fibril formation acts as an effective apoptotic trigger for neuronal cells and serves as an in vitro model for various neurodegenerative diseases characterized by extracellular protein fibril formation, typified by diseases such as AD and PD.
# CGNs were harvested from day 8/9 post-natal CD1 mice, plated on Poly-D-Lycine coated plates and incubated for 6 days at 37° C. under 5% CO2. Pretreated cells were treated with drug 24 hours prior to A-β (25 μM) and drug addition.
# CGNs [3] = assay: High/Low Potassium (HK/LK) assay in CGNs; format: cell-based; conditions: for IC50: Mus musculus, HK/LK switch, drug 24 h pre-treatment, assayed 16 h after media change, concentration at which cell death was inhibited by 50%
# Method: Cultured CGNs which are maintained in a medium containing 26 mM potassium (high K^+ or HK) undergo cell death when the medium is changed to one containing 5 mM potassium (low K^+ or LK). HK maintains the cells in a highly polarized state, duplicating that of fully innervated neurons. The switch to LK (5 mM is more representative of physiological conditions) results in depolarization of the cells, mimicking the loss of neuronal conductivity. […] As these killer genes are turned on by various types of neuronal insult as observed in AD, PD, and stroke, HK/LK is a general in vitro model for neuronal degradation, blanketing a wide range of neurodegenerative diseases. Compounds that protect against HK/LK in CGNs would therefore be efficacious in treatment and/or prevention of various neurodegenerative disease states.
# CGNs were harvested from day 8/9 post-natal CD1 mice, plated on Poly-D-Lycine coated plates and incubated for 6 days at 37° C., with […] potassium, under 5% CO2. Pretreated cells were treated with drug 24 hours prior to changing the media to one containing […] potassium and drug. Cells were assayed 16 hours after the final media change using cell TITER96 (Promega).
# CGNs [4] = assay: Glutamate Killing of CGNs; format: cell-based, CD1 mice; conditions: glutamate 100 uM
# Description: Glutaminergic neurons secrete the neurotransmitter glutamate as a part of normal cell signaling processes. Intracellular glutamate levels are regulated by glial cell uptake and conversion to glutamine. Under conditions of oxidative stress, as observed in various neurodegenerative diseases such as stroke, ALS, PD, and HD, glutaminergic neurons release massive amounts of glutamate into the […] fluid, overwhelming the surrounding cells. Stimulation of both NMDA and non NMDA-type glutamate excitory receptors leads to sustained depolarization of postsynaptic dendrosomal membranes, increased membrane permeability, and impaired ion homeostasis, all leading to either apoptotic or necrotic cell death.
# CGNs were harvested from day 8/9 post-natal CD1 mice, plated on Poly-D-Lycine coated plates and incubated for 6 days at 37° C. under 5% CO2. Cells were pretreated with drug 24 hours prior to glutamate (100 uM) and drug addition.
# CGNs [5] = assay: Ceramide Killing of CGNs; format: cell-based, CD1 mice; conditions: ceramide 100 uM
# Description: Ceramide is a native […] found in most mammalian and human cells. The upregulation of endogenous ceramide has been linked to caspase 1 (ICE) induced apoptosis (Suzuki, A. et al. Exp. Cel. Res., 1997, 233, 41). In a similar fashion, the addition of ceramide to cultured CGNs results in caspase induced apoptosis, and is therefore considered an effective in vitro model for the various neurodegenerative diseases described above, which are characterized by caspase induced apoptosis, as observed in stroke models. Addition of selected compounds of the formula I through III, 24 hours prior to the addition of ceramide, to cultured CGNs provided protection against apoptosis, with 10 to 20% of the cells being saved at 1–10 μM drug concentrations (see Example 114).
# CGNs were harvested from day 8/9 post-natal CD1 mice, plated on Poly-D-Lycine coated plates and incubated for 6 days at 37° C. under 5% CO2. Cells were pretreated with drug 24 hours prior to ceramide (100 uM) and drug addition.
# Cortical neurons = assay: Cisplatin Killing of Cortical Neurons; format: cell-based, Sprague-Dawley rats; conditions: drug 10 μM 24 h pre-treatment
# Method: Cortical neurons were harvested from day E18 female Sprague-Dawley rats, plated on Poly-L-Lycine coated plates and incubated for 14 days at 37° C. under 5% CO2. […]
# HIAP1 mRNA in LAN5 cells = assay: LAN5 HAIP1 Down Regulators (RNA levels); format: cell-based; conditions: HIAP1 RNA level vs control = 1.0; 24 hours drug
# Method: LAN5 cells were grown in growth media. Cells were plated at cells 50,000 per well in 96 cells per 96 wells. Five days latter drug was added and the cells were liced 24 hours latter using RLT buffer.
# [6] = test system: DU145 prostate cancer cells; assay: Anticancer Effectiveness on Prostate Tumor Cells (Alamar Blue); format: cell-based, Human; conditions: for % Survival: 7 days
# Method: Prostate cancer is often resistant to traditional chemotherapies. DU145 is representative prostated cancer cell line. DU145cells were cultured in the presence of various concentrations of compound 136.
# Human prostate DUI45 cells were cultured in 96 well dishes. Cells were treated with various concentrations of test compounds for 7 days. Media was then removed and replaced with fresh media containing Alamar Blue. The cells were incubated for a further 4 hours and Alamar blue and conversion was assessed by fluorescence. Compound effectiveness was determined by assessing the reduction in Alamar blue bioconversion following 7 day treatment.
# [7] = Mus musculus, assayed 48 hours after final drug treatment
smiles,measurement,setting,value
"O=C1NC(=O)C(n2ccc3ccccc32)=C1c1c[nH]c2ccccc12 [Compound 1, 3-(indol-1-yl)-4-(1H-indol-3-yl)-1H-pyrrole-2,5-dione]",IC50,CGNs [1]; [7],10 µM
same,IC50,SCG neurons,20 µM
same,% SHSY-5Y cell survival,SHSY-5Y cells; drug 1 μM,0%
same,% SHSY-5Y cell survival,SHSY-5Y cells; drug 10 μM,12.5%
same,melting point,,212 to 213 °C
"COc1ccc2[nH]cc(C3=C(n4ccc5ccccc54)C(=O)NC3=O)c2c1 [Compound 2, 3-(5-Methoxyindol-3-yl)-4-(indol-1-yl)-1H-pyrrole-2,5-dione]",IC50,CGNs [2],10 µM
same,IC50,CGNs [1]; [7],10 µM
"O=C1NC(=O)C(n2ccc3ccccc32)=C1c1c[nH]c2ccc(OCc3ccccc3)cc12 [Compound 5, 3-(5-Benzyloxy-1H-indol-3-yl)-4-(indol-1-yl)-pyrrole-2,5-dione]",IC50,CGNs [1]; [7],10 µM
same,melting point,,217 to 220 °C
"O=C1NC(=O)C(n2ccc3cc(OCc4ccccc4)ccc32)=C1c1c[nH]c2ccccc12 [Compound 12, 3-(5-benzyloxyindol-1-yl)-4-(1H-indol-3-yl)-1H-pyrrole-2,5-dione]",melting point,,114 to 116 °C
"O=C1NC(=O)C(n2ccc3ccccc32)=C1c1c[nH]c2ccc(C#Cc3ccccc3)cc12 [Compound 15, 3-(Indol-1-yl)-4-(5-(β-phenylethynyl)-indol-3-yl)-pyrrole-2,5dione]",melting point,,141 to 144 °C
O=C1NC(=O)C2=C1c1c([nH]c3ccccc13)C1Cc3ccccc3N21 (centres unmarked) [Compound 24],IC50,CGNs [3],10 µM
same,IC50,CGNs [2],10 µM
same,IC50,CGNs [1]; [7],3 µM
same,% CGN Survival,CGNs [4]; drug 100 nM,0%
same,% CGN Survival,CGNs [4]; drug 1 μM,17.0%
same,% CGN Survival,CGNs [4]; drug 10 μM,22.3%
same,% CGN Survival,CGNs [5]; drug 1 μM,11.4%
same,% CGN Survival,CGNs [5]; drug 10 μM,10.7%
O=C1NC(=O)C2=C1c1c([nH]c3ccc(OCc4ccccc4)cc13)C1Cc3ccccc3N21 (centres unmarked) [Compound 35],survival,"CGNs [1]; 300 nM drug, cisplatin",80%
same,IC50,CGNs [1]; cisplatin induced apoptosis in CGNs,0.1 µM
same,% Protection at 10 μM,Cortical neurons,10% and 11%
COc1ccc2[nH]c3c(c4c(n5c6ccccc6cc35)C(=O)NC4=O)c2c1 [Compound 47],inhibition of HK/LK cell death / protection of CGN neurons,CGNs [3]; 10 μM drug,(100% inhibition at 10 (μM)
same,IC50,CGNs [3],3 µM
same,IC50,CGNs [1]; [7],10 µM
same,IC50,SCG neurons,10 µM
COc1ccc2c(c1)c1c3c(n4c5ccccc5cc4c1n2C(=O)COC(C)=O)C(=O)NC3=O [Compound 51],IC50,CGNs [1]; [7],1 µM
same,% Protection at 10 μM,Cortical neurons,20% and 23%
O=C1NC(=O)c2c1c1c3cc(OCc4ccccc4)ccc3[nH]c1c1cc3ccccc3n21 [Compound 52],IC50,CGNs [1]; assayed 48 hours after final drug treatment,3 µM
same,% Protection at 10 μM,Cortical neurons,50% and 40%
O=C1NC(=O)c2c1c1c3ccccc3[nH]c1c1nc3ccccc3n21 [Compound 53],% Protection at 10 μM,Cortical neurons,41%
"CC(=O)n1cc(C2=CC(=O)NC2=O)c2cc(Br)ccc21 [Compound 57, 3-(N-acetyl-5-bromoindol-3-yl)-1H-pyrrole-2,5-dione]",Fold Induction,HIAP1 mRNA in LAN5 cells,0.45
same,melting point,,271 to 272.9 °C
"CN(C)C(=O)n1cc(C2=CC(=O)NC2=O)c2cc(Br)ccc21 [Compound 58, 3-(N-(N,N-dimethylcarbamoyl)-5-bromoindol-3-yl)-1H-pyrrole-2,5-dione]",Fold Induction,HIAP1 mRNA in LAN5 cells,0.55
same,melting point,,287 to 288 °C
"COc1ccc(C(=O)n2cc(C3=CC(=O)NC3=O)c3cc(OCc4ccccc4)ccc32)c(OC)c1 [Compound 67, 3-(N-(2,4-dimethoxybenzoyl)-5-benzyloxyindol-3-yl)-1H-pyrrole-2,5-dione]",IC50,SCG neurons,10 µM
"COc1ccc2c(c1)c(C1=CC(=O)NC1=O)cn2S(=O)(=O)c1ccc(C)cc1 [Compound 87, 3-(N-tosyl-5-methoxyindol-3-yl)-1H-pyrrole-2,5-dione]",IC50,CGNs [2],10 µM
same,% CGN Survival,CGNs [4]; drug 100 nM,0%
same,% CGN Survival,CGNs [4]; drug 1 μM,11.5%
same,% CGN Survival,CGNs [5]; drug 1 μM,0%
same,% CGN Survival,CGNs [5]; drug 10 μM,9.1%
same,Fold Induction,HIAP1 mRNA in LAN5 cells,0.37
"Cc1ccc(S(=O)(=O)n2cc(C3=CC(=O)NC3=O)c3cc(O)ccc32)cc1 [Compound 91, 3-(N-tosyl-5-hydroxyindol-3-yl)-1H-pyrrole-2,5-dione]",IC50,SCG neurons,20 µM
"O=C1C=C(c2cn(S(=O)(=O)c3cccs3)c3ccccc23)C(=O)N1 [Compound 97, 3-(N-(2-thiophenesulfonyl)indol-3-yl)-1H-pyrrole-2,5-dione]",IC50,SCG neurons,10 µM
COC(=O)C(C)(C)Cc1c(C2=CC(=O)NC2=O)c2cc(OCc3ccc4ccccc4n3)ccc2n1Cc1ccc(Cl)cc1 [Compound 109],IC50,SCG neurons,10 µM
CN(C)CCCn1cc(C2=C(n3ccc4ccccc43)C(=O)NC2=O)c2cc(OCc3ccccc3)ccc21 [Compound 136],cells killed,"[6]; 10 μM, after 7 days",100%
same,% Survival,[6]; 0.312 um,102.71%
same,% Survival,[6]; 0.625 um,97.00%
same,% Survival,[6]; 1.25 um,99.61%
same,% Survival,[6]; 2.5 um,81.81%
same,% Survival,[6]; 5 um,66.75%
same,% Survival,[6]; 10 um,−1.64%
same,% Survival,[6]; 20 um,−1.00%
same,% Survival,[6]; 40 um,1.17%
"COC(=O)[C@@]1(O)C[C@H]2O[C@]1(C)n1c3ccccc3c3c4c(c5c6ccccc6n2c5c31)C(=O)NC4 [Compound K252a, K252a, reference compound]",toxicity,CGNs [3]; higher doses,toxic at higher doses
same,% CGN Survival,"CGNs [4]; 300 nM, (250 nM in source)",4.3 (250 nM) %
same,% CGN Survival,"CGNs [5]; 300 nM, (250 nM in source)",0 (250 nM) %
same,% SHSY-5Y cell survival,SHSY-5Y cells; drug 1 μM,13.9%
same,Fold Induction,HIAP1 mRNA in LAN5 cells,0.51
